The values below come from ChEMBL document CHEMBL1141234, “Synthesis and SAR of highly potent dual 5-HT1A and 5-HT1B antagonists as potential antidepressant drugs” (Bioorg Med Chem Lett, 2005).

Activity calls are given as the source filed them. The calls are words filed in the database; no cut-off is given here.

Series [1] has as its target T1, 5-hydroxytryptamine receptor 1A (Homo sapiens, UniProt P08908).
T1 sequence (P08908 whole entry): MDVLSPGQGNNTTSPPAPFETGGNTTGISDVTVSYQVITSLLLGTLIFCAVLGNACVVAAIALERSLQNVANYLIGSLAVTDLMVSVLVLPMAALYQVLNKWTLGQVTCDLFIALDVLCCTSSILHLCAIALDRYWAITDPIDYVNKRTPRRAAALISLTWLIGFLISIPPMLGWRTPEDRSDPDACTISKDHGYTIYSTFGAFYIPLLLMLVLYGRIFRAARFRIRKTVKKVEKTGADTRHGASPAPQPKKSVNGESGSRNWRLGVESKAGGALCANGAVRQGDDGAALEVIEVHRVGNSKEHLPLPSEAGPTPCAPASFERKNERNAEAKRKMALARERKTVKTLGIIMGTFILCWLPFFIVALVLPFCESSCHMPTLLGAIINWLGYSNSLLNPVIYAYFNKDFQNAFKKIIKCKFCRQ
Nature of the series: Displacement of [35S]GTP-gamma-S from human recombinant 5HT1A receptor. The format is functional. (In general: Displacement assays read how much labelled ligand stays bound in the presence of the test substance.)

Series [2] deals with T2, Adrenergic receptor alpha-1 (Homo sapiens, UniProt P35348+P25100+P35368).
T2 sequence (P35348 whole entry): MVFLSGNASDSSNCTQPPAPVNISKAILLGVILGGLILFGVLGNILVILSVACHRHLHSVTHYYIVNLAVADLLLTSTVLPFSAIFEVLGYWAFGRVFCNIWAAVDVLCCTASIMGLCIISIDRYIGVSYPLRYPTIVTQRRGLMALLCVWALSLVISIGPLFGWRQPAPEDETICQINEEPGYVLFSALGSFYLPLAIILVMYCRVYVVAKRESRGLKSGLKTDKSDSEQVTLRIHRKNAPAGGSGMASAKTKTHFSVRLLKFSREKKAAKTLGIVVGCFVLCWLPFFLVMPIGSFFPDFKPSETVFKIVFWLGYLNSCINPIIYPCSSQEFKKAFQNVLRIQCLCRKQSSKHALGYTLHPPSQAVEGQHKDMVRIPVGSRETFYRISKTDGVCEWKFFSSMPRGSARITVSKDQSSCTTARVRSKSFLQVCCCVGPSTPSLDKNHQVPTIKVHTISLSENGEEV
T2 sequence (P25100 whole entry): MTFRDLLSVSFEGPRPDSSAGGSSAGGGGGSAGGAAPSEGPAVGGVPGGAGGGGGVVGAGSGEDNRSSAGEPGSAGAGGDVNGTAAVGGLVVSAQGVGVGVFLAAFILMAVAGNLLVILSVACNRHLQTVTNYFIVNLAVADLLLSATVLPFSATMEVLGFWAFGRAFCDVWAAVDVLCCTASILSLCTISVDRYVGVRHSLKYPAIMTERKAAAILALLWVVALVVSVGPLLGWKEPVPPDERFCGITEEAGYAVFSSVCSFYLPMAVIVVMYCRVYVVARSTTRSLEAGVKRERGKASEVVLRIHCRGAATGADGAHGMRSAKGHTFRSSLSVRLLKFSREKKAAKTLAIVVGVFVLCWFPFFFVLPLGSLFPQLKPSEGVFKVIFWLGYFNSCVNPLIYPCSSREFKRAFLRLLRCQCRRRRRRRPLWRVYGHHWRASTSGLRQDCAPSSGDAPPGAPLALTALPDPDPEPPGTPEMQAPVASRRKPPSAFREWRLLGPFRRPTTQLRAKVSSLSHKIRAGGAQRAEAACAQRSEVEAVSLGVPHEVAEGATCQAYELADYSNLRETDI
T2 sequence (P35368 whole entry): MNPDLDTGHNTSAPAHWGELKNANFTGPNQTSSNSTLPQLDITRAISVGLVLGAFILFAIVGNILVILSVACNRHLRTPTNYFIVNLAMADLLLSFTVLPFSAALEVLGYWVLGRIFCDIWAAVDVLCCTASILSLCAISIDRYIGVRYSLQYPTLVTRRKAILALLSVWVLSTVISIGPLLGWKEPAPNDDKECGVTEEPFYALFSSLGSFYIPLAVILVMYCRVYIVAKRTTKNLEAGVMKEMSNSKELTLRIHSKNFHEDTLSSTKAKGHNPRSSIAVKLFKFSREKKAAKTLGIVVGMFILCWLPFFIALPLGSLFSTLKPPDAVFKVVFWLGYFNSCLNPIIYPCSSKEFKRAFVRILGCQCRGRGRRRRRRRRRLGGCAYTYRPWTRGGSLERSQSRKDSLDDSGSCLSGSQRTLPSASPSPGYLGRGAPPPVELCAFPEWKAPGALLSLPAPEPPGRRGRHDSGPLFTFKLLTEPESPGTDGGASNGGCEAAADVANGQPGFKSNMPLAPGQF
Nature of the series: Inhibitory activity against Adrenergic alpha-1 receptor. The format is protein assay.

Series [3] addresses 5-hydroxytryptamine receptor 1B (Homo sapiens, UniProt P28222). In words: Intrinsic activity for 5HT1B receptor in FLIPR assay. The series is classed as functional.
Series [4] in a line: Oral bioavailability in rat at 10 mg/kg, po. The format is ADME, organism-based. The note with it: in vivo.
A short description of series [5]: Ratio of drug level in brain against plasma in rat. The format is ADME, organism-based. The note with it: read-out: BBR.
For series [6], the target named is 5-hydroxytryptamine receptor 2A (Homo sapiens, UniProt P28223). Nature of the series: Inhibitory activity against 5HT2A receptor.
Sequence of 5-hydroxytryptamine receptor 2A (P28223 whole entry): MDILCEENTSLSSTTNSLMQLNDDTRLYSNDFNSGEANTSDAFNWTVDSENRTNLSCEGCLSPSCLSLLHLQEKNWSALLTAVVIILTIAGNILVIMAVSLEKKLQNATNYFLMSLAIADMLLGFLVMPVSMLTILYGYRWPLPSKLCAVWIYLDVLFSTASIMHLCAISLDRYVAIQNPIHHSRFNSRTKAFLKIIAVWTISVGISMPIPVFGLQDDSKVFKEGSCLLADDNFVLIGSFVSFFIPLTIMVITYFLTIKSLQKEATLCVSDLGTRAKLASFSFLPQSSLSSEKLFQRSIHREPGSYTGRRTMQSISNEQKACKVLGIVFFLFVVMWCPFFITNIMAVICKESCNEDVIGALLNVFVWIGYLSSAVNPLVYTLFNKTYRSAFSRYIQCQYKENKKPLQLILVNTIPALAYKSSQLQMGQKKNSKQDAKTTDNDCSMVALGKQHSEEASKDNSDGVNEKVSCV
Series [7] addresses T3, 5-hydroxytryptamine receptor 2C (Homo sapiens, UniProt P28335).
T3 sequence (P28335 whole entry): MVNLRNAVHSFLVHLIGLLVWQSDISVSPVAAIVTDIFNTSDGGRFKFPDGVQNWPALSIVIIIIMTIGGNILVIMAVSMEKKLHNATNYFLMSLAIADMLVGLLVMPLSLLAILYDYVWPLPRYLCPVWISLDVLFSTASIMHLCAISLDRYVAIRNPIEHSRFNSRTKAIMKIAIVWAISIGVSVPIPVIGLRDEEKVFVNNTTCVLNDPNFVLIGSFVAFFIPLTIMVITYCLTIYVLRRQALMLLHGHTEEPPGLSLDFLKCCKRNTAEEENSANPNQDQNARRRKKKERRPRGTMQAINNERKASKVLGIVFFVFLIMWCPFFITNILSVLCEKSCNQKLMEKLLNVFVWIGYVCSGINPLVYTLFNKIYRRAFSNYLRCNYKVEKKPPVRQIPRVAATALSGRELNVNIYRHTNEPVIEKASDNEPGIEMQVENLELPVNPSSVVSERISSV
In words: Inhibitory activity against 5HT2C receptor.

Series [8] concerns the target 5-hydroxytryptamine receptor 7 (Homo sapiens, UniProt P34969). Nature of the series: Inhibitory activity against 5HT7 receptor.
The next series deals with D(3) dopamine receptor (Homo sapiens, UniProt P35462). Nature of the series: Inhibitory activity against dopamine D3 receptor.
Sequence of D(3) dopamine receptor (P35462 whole entry): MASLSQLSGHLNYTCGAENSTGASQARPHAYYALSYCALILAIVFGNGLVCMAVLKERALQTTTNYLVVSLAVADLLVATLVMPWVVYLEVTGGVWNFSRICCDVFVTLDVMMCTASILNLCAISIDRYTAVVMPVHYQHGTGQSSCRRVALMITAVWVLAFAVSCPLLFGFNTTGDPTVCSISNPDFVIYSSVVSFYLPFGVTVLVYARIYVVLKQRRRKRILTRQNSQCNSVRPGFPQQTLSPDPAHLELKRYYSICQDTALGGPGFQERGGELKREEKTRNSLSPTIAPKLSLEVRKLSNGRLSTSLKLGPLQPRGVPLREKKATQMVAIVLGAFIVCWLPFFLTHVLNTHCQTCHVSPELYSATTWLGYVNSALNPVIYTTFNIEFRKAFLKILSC
The species named for a further series is Rattus norvegicus. In words: Electrically stimulated [3H]5-HT release from rat brain cortical slices at 1 uM. The format is functional, tissue-based.
The target in series [9] is Sodium-dependent serotonin transporter (Homo sapiens) (UniProt P31645). In words: Inhibitory activity against SERT upto 10 uM.
Sequence of Sodium-dependent serotonin transporter (Homo sapiens) (P31645 whole entry, looked up): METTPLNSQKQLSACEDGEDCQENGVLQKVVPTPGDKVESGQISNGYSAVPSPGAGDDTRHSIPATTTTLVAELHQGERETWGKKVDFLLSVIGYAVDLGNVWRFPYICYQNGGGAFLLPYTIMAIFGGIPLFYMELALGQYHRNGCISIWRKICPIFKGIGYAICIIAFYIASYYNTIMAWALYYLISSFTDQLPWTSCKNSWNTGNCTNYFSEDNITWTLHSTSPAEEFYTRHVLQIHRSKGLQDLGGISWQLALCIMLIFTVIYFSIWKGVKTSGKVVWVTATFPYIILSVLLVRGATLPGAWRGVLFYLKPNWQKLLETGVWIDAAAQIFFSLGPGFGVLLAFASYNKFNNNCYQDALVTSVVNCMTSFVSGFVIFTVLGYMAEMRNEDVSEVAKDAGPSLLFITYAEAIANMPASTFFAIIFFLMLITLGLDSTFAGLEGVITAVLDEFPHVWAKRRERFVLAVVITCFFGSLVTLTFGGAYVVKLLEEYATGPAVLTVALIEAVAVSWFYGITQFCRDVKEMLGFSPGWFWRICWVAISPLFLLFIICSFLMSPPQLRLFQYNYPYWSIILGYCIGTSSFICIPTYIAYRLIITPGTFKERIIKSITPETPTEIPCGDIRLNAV
Series [10] deals with T4, 5-hydroxytryptamine receptor 1A (Homo sapiens) (UniProt P08908).
T4 sequence (whole entry): T1 sequence (P08908 whole entry)
Nature of the series: Functional activity in [35S]GTP-gamma-S assay for 5HT1A receptor. The settings on record: filed as antagonist. (In general: Binding of GTPγS marks nucleotide exchange on a G protein.)

Series [11] has as its target Sodium-dependent dopamine transporter (Homo sapiens) (UniProt Q01959). Nature of the series: Inhibitory activity against DAT upto 10 uM.
The target of series [12] is Sodium-dependent noradrenaline transporter (Homo sapiens) (UniProt P23975). In words: Inhibitory activity against NET upto 10 uM.
Sequence of Sodium-dependent noradrenaline transporter (Homo sapiens) (P23975 whole entry): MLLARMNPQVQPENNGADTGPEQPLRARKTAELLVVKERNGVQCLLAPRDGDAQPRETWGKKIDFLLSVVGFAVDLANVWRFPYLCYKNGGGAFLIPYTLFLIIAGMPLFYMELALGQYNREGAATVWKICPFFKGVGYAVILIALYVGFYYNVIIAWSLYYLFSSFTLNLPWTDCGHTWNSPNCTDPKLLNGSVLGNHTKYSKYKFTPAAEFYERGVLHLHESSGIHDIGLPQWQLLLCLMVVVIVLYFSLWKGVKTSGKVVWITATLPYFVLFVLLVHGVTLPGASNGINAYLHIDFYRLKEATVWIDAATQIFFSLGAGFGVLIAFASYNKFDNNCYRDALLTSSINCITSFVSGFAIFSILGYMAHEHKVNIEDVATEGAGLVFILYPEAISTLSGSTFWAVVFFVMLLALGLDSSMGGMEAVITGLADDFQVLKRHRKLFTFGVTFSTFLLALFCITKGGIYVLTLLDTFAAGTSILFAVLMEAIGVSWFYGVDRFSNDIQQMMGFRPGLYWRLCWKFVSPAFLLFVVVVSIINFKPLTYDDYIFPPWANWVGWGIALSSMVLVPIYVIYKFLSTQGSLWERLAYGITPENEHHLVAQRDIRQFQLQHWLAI

Sequence of 5-hydroxytryptamine receptor 1B (P28222 whole entry): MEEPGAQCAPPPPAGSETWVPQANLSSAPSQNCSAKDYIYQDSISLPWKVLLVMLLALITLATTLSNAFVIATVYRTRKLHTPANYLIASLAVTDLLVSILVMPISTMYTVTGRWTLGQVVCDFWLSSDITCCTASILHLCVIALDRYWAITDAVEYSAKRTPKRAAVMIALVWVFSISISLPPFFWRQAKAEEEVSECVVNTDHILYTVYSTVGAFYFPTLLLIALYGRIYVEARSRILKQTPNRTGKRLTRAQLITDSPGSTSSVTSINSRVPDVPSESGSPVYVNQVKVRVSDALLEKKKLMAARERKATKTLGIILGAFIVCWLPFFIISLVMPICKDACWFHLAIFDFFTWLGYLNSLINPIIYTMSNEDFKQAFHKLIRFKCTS
Sequence of 5-hydroxytryptamine receptor 7 (P34969 whole entry): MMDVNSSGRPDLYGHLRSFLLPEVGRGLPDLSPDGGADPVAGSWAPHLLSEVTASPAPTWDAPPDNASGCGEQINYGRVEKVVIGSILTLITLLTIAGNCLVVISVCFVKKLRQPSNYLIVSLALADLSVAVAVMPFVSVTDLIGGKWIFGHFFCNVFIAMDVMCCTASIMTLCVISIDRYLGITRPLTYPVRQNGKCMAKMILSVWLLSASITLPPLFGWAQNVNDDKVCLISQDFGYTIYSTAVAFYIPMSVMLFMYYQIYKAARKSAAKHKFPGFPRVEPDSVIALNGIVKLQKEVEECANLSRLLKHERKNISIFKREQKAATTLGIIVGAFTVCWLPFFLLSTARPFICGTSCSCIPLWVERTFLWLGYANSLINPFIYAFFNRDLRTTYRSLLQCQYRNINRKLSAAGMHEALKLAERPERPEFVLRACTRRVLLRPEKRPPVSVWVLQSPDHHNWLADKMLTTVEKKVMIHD
Sequence of Sodium-dependent dopamine transporter (Homo sapiens) (Q01959 whole entry): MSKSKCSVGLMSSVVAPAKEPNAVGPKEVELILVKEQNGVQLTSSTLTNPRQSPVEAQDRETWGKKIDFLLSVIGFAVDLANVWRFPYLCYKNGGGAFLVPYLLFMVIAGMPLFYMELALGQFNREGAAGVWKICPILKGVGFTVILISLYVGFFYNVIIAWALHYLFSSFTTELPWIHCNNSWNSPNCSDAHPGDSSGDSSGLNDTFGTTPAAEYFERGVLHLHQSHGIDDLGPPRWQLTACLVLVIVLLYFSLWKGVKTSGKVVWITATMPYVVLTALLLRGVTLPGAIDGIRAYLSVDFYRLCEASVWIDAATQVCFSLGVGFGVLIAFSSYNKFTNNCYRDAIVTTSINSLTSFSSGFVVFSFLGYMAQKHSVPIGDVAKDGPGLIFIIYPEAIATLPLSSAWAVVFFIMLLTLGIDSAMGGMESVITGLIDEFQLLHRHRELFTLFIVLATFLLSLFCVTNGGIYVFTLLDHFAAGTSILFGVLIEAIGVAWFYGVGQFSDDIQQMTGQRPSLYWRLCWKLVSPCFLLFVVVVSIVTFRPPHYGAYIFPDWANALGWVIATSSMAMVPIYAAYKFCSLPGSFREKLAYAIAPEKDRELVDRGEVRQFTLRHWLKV

As to `CN1CCc2c(sc3ncn(CCN4CCN(c5cncc6ccccc56)CC4)c(=O)c23)C1`, the IC50 (commonly the concentration at which inhibition is half-maximal) in [1] is 0.316 µM. For the same compound, the Ki (commonly a dissociation constant, usually derived from enzyme kinetics or from competition with a known ligand) in [1] is 0.0047 µM; in series [2], 0.0137 µM; in series [6] it was 0.18 µM; in series [7] it was more than 10 µM; in series [8] it was 0.52 µM; at D(3) dopamine receptor, 0.00118 µM. Further, the Emax – broadly, the greatest response seen or fitted, relative to the assay's reference – in series [3] came to 7%. In [4], the bioavailability (commonly the share of a dose that reaches the circulation, judged against a reference dose that is usually intravenous) worked out at 11%. Moreover, in series [5], the Kp was 10.2. For the same compound, the Activity result in the series listed under Rattus norvegicus is “Dose-dependent effect”; in [10], “Antagonist”. The outcome in series [9], in series [11] and in series [12] was inactive.
